Activity calls are given as the source filed them.
Assays:
[1] = system: Vero; assay: cells; format: functional; conditions: Chlorocebus sabaeus
[2] = biological target: T1, Short transient receptor potential channel 4 (Mus musculus, UniProt Q9QUQ5); assay: mouse TRPC4 channel inhibitors, dose response, cell-based, HEK293 TRPC4/mu-opioid, Fluo-4 calcium (AID 434942); format: functional;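 also: potency of inhibitors blocking the TRPC4 calcium response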
T1 sequence (Q9QUQ5 whole entry): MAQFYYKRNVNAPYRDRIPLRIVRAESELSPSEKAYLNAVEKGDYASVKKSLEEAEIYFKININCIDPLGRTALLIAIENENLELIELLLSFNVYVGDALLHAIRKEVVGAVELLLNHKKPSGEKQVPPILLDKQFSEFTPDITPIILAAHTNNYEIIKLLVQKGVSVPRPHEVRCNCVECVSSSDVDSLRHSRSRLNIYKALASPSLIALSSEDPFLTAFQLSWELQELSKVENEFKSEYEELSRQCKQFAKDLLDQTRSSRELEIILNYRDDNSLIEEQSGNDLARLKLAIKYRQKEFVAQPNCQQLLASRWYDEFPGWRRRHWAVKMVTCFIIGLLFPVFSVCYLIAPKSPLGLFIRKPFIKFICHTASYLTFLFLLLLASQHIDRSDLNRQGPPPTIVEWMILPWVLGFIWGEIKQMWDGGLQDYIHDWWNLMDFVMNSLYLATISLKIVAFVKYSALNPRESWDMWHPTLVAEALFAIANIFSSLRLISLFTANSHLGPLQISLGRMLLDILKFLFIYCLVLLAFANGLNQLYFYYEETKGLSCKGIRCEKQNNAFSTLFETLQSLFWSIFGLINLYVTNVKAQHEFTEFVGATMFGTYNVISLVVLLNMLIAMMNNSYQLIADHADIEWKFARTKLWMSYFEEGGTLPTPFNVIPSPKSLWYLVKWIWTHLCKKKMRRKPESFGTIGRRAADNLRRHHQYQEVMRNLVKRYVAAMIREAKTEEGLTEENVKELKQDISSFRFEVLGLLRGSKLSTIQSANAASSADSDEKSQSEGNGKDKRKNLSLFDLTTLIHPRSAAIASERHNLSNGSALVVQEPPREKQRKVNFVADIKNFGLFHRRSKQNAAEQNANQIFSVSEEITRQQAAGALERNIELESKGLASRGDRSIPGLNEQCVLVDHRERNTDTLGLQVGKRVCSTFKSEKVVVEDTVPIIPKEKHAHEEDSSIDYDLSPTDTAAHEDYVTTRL

[3] = biological target: T2, High affinity choline transporter 1 (Homo sapiens, UniProt Q9GZV3); assay: CHT inhibitors, dose response, cell-based, 5-point CRC, membrane potential dye (AID 504840); format: functional
T2 sequence (Q9GZV3 whole entry): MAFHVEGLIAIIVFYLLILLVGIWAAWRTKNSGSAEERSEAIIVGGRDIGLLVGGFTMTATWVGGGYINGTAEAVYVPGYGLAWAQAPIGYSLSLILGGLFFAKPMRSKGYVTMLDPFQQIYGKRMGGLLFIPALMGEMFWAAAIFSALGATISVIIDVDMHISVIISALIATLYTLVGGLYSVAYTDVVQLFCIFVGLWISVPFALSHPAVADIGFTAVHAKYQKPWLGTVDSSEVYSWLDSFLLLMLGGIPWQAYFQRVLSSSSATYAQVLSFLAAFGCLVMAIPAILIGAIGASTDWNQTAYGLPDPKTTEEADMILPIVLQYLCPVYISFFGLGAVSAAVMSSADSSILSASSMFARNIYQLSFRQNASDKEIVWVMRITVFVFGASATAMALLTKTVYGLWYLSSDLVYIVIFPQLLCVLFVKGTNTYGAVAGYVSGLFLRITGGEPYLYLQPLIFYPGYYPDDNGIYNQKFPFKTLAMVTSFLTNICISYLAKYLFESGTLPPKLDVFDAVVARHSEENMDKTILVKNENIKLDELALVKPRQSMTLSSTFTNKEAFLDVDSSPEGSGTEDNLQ

[4] = biological target: T3, Endoribonuclease toxin MazF (Escherichia coli K-12, UniProt P0AE70); assay: fluorescent RNA oligo signal without MazF, dose response, counter-screen for MazEF activator project, biochemical, fluorescence, single-stranded RNase substrate (AID 588502); format: functional
T3 sequence (P0AE70 whole entry): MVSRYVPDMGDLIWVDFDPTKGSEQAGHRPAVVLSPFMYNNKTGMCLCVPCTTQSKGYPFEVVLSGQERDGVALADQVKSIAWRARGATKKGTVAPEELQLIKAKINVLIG

[5] = biological target: T3, Endoribonuclease toxin MazF; assay: MazF toxin RNase activators, dose response, biochemical, fluorescence, single-stranded RNA substrate, uHTS hits (AID 588481); format: functional
[6] = human group III sPLA2 inhibitors, dose response, biochemical, QFRET, IC50 (AID 743457);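 also: green fluorescence rise as the enzyme cleaves BODIPY PC-A2 in liposomes; potency for inhibition of the enzyme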
[7] = biological target: Disintegrin and metalloproteinase domain-containing protein 17 (Homo sapiens, UniProt P78536); assay: exosite inhibitors of ADAM17, dose response, biochemical (AID 743260)
[8] = biological target: T4, Fatty acid synthase (Homo sapiens, UniProt P49327); assay: FAS thioesterase domain inhibitors, dose response, biochemical, kinetic fluorescence intensity (AID 624326); format: functional;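 also: rate of fluorescence rise from hydrolysis of a fluorogenic O-methyl fluorescein ester substrate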
[9] = biological target: T4, Fatty acid synthase; assay: FAS thioesterase domain inhibitors, dose response, biochemical, endpoint fluorescence intensity, uHTS hits (AID 624327); format: functional;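 also: fluorescence from hydrolysis of an O-methyl fluorescein acyl ester substrate by the enzyme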
[10] = ADAM10 protease inhibitors, dose response, selectivity assay for ADAM17 exosite inhibitor project, biochemical, FRET peptide substrate, recombinant human ADAM10 (AID 743259);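 also: ADAM10 enzyme cleaving a FRET peptide substrate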
[11] = biological target: T5, Carboxy-terminal domain RNA polymerase II polypeptide A small phosphatase 1 (Homo sapiens, UniProt Q9GZU7); assay: inhibitors of CTDSP1, concentration-response testing, biochemical assay, absorbance-based, actives from ultra-high-throughput screening (AID 540297); format: functional
T5 sequence (Q9GZU7 whole entry): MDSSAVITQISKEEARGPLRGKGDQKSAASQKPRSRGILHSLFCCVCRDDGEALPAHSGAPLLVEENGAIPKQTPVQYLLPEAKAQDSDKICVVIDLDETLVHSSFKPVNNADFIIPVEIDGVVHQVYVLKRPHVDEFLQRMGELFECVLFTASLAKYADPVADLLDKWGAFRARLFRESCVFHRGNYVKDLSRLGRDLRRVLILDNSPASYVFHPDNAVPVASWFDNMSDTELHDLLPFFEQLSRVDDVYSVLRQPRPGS

[12] = biological target: Nucleotide-binding oligomerization domain-containing protein 2 (Homo sapiens, UniProt Q9HC29); assay: NOD2 signaling inhibitors, cell-based, luminescence, uHTS, HEK293 (AID 1566); format: functional
[13] = system: HEK293; assay: NOD2 signaling inhibitors in MDP-stimulated cells, cell-based, uHTS, luminescence (AID 2001); format: functional; conditions: Homo sapiens
[14] = system: BJ; assay: cytotoxicity toward BJ-TERT fibroblasts, dose response, cell-based, RAS-independent, luminescence (AID 1933); format: functional; conditions: Homo sapiens
[15] = system: BJ; assay: cytotoxicity toward BJ-TERT-LT-ST fibroblasts, dose response, cell-based, RAS-independent, luminescence (AID 1935); format: functional; conditions: Homo sapiens;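 also: BJ fibroblasts immortalized with TERT plus LT and ST oncogenes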
[16] = system: BJ; assay: cells; format: functional, cell-based; conditions: Homo sapiens
[17] = system: HEK293; assay: cells; format: functional, cell-based; conditions: Homo sapiens
[18] = system: HEK293; assay: cells; format: functional, cell-based; conditions: Homo sapiens; remark: listed apart in the source
[19] = cytotoxicity toward DRD oncogenic fibroblasts, dose response, cell-based, non-viral oncogenic, luminescence (AID 1934); format: functional; conditions: Homo sapiens
[20] = system: HEK293; assay: NOD1 signaling inhibitors, primary screen, cell-based, luminescence, uHTS (AID 1578); format: functional; conditions: Homo sapiens
[21] = system: HEK293; assay: cells; format: functional, cell-based; conditions: Homo sapiens; remark: listed apart in the source

Disintegrin and metalloproteinase domain-containing protein 17, sequence (P78536 whole entry, the tested form may be a part): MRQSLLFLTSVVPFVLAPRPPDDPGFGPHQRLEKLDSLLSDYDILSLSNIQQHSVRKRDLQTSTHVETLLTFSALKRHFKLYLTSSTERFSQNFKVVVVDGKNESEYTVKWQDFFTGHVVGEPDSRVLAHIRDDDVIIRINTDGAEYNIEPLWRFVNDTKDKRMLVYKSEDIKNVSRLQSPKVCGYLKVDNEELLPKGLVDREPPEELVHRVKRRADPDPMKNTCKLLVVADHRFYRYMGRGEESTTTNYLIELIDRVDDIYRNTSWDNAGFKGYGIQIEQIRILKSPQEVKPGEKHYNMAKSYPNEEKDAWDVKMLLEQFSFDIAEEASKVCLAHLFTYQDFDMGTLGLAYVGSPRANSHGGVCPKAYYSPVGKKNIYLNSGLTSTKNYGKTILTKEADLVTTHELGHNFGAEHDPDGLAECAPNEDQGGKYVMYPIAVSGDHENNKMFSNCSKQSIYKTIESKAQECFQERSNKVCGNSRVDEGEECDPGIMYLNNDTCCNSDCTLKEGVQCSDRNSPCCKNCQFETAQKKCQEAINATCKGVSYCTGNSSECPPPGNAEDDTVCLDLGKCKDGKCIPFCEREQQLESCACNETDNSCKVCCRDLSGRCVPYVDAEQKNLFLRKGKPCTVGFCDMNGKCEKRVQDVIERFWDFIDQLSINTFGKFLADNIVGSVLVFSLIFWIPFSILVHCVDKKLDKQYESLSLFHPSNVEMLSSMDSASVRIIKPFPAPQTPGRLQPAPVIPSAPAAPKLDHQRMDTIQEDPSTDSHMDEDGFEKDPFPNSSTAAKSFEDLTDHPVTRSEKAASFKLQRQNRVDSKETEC
T4 sequence (P49327 whole entry, the tested form may be a part): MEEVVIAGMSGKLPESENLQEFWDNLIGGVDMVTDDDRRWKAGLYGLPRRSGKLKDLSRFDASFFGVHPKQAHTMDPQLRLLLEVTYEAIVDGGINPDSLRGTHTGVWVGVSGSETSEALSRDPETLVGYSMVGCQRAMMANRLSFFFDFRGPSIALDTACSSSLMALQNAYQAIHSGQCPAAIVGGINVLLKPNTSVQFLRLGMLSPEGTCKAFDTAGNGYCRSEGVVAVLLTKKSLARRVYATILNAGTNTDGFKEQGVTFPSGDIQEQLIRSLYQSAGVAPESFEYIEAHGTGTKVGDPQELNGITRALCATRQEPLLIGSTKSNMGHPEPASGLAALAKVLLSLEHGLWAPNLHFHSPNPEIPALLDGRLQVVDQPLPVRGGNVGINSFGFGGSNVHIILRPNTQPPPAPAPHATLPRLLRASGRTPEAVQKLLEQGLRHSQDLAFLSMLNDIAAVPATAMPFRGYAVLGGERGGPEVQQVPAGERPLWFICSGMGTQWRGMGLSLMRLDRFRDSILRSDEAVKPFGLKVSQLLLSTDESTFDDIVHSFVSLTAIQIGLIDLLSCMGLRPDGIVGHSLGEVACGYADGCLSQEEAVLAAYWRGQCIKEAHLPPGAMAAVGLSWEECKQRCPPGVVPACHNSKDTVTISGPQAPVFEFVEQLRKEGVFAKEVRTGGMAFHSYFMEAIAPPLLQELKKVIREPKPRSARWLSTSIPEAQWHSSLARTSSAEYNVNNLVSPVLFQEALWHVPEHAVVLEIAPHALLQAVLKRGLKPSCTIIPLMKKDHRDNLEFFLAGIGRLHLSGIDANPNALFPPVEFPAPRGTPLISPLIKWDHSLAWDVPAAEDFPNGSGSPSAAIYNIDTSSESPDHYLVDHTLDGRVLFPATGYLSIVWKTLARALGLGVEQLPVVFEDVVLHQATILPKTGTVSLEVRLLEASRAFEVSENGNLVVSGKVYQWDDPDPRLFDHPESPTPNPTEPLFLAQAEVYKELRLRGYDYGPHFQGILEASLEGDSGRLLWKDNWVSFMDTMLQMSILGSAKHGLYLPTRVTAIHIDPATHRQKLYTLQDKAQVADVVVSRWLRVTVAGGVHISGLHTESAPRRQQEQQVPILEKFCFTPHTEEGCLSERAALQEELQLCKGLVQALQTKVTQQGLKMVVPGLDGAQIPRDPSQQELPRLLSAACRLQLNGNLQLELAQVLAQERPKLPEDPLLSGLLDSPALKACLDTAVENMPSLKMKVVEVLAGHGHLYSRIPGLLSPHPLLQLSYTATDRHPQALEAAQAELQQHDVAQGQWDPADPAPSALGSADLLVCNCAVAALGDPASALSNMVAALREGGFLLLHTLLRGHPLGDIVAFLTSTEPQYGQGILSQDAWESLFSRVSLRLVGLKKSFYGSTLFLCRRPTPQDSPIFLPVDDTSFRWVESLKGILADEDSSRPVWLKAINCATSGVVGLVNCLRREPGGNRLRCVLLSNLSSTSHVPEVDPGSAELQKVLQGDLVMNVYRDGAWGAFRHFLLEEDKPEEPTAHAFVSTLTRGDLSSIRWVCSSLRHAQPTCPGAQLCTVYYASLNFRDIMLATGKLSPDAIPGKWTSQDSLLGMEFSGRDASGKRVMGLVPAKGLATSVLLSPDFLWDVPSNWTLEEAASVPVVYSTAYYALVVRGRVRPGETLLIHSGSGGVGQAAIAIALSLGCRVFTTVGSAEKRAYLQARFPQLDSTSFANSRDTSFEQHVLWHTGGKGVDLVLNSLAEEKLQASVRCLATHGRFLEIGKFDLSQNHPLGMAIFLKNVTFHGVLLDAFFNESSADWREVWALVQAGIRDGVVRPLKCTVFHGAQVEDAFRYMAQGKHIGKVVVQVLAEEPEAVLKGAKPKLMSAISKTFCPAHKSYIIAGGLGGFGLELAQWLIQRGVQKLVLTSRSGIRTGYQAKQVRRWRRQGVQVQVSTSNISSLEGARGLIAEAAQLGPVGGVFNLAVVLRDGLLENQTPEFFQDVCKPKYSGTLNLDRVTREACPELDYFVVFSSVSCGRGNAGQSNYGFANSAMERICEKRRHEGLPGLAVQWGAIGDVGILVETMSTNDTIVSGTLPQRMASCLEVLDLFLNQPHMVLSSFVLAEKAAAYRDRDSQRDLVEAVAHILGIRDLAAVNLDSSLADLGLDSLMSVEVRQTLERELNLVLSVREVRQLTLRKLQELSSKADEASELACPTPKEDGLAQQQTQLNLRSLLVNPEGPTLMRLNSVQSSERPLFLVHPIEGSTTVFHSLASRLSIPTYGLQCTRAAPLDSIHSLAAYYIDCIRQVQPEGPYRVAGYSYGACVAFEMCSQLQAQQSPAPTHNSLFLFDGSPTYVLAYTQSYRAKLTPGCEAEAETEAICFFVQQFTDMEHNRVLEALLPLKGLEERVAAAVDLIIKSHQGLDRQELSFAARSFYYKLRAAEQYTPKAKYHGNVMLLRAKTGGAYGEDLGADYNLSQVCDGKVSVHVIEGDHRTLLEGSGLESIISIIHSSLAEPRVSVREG
Nucleotide-binding oligomerization domain-containing protein 2, sequence (Q9HC29 whole entry, the tested form may be a part): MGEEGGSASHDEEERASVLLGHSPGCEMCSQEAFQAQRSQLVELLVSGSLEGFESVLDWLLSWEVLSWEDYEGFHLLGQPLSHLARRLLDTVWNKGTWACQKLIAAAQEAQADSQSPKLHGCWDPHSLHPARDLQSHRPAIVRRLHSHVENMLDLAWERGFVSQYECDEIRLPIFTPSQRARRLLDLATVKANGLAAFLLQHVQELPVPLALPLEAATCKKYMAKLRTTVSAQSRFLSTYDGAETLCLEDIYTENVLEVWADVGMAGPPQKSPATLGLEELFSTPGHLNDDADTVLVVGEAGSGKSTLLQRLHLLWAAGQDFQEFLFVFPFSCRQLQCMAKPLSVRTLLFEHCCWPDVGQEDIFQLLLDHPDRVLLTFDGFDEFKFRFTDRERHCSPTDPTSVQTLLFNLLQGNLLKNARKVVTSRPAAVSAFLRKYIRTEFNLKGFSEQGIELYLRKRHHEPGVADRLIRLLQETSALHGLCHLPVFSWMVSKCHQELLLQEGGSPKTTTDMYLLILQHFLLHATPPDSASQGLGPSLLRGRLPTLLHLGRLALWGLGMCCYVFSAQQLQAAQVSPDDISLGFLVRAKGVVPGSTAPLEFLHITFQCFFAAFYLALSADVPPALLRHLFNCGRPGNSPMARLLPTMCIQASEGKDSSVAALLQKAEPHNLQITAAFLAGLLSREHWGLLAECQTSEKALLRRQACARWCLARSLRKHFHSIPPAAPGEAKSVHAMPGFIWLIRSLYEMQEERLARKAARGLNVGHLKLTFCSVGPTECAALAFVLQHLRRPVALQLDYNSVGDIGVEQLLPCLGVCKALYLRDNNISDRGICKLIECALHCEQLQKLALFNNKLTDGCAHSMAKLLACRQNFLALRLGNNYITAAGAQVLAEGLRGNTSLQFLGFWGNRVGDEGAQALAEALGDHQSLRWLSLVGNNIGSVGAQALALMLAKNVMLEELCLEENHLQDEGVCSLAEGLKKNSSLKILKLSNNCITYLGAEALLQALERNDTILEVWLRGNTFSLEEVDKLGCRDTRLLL

Q: With `O=C(O)c1nn(CCOc2c(Cl)cccc2Cl)c(=O)c2ccccc12` as the compound, how does the CC50 [1] read?
A: > 25 µM (active)

Q: For `COc1ccccc1CC(Cc1nc2ccccc2[nH]1)c1nc2ccccc2[nH]1` (stereo not given), which EC50 [2] is on record?
A: 3.35 µM (active)

Q: What about the IC50 [3] of the same compound?
A: 13.8 µM (active)

Q: Which EC50 [4] does the source give for `O=C(Nc1cccc2ccccc12)N1CC=C(c2ccccc2)CC1` here?
A: > 99 µM (inactive)

Q: And the EC50 [5]?
A: 53.7 µM (inactive)

Q: Which IC50 [6] does the source give for `Cc1cccc(NC(S)=NNC(=O)c2csc(C)c2)c1` here?
A: > 122 µM (inactive)

Q: Which results are given for `Cc1cccc(NS(=O)(=O)c2ccc3[nH]c(=O)cc(C(=O)OC(C)C(=O)Nc4ccc([N+](=O)[O-])cc4)c3c2)c1` (stereo not given)?
A: IC50 [7]: > 69.5 µM (inactive); IC50 [8]: 3.66 µM (active); IC50 [9]: 1.51 µM (active)

Q: For `Cc1cccc(NS(=O)(=O)c2ccc3nc(O)cc(C(=O)OC(C)C(=O)Nc4ccc([N+](=O)[O-])cc4)c3c2)c1` (stereo not given), which IC50 [10] is on record?
A: > 69.5 µM (inactive)

Q: Which IC50 [7] does the source give for `Cc1cc(C)cc(-n2c(SC(C)C(=O)NCc3ccc4c(c3)OCO4)nc3ccccc3c2=O)c1` (stereo not given) here?
A: > 69.5 µM (inactive)

Q: What about the IC50 [10] of the same compound?
A: 18.3 µM (inactive)

Q: With `CC1CN(C2=CC(=[N+]3CCOCC3)CC(C)(C)C2)CC(C)O1` (stereo not given) as the compound, how does the IC50 [11] read?
A: 1.83 µM (active)

Q: For `COc1cc(/C=C/c2ccc3cccc(O)c3n2)cc(Cl)c1OC`, which EC50 [12] is on record?
A: > 20 µM (inactive)

Q: What about the IC50 [13] of the same compound?
A: 4.22 µM (inactive)

Q: What about the EC50 [14] of the same compound?
A: 23.4 µM (active)

Q: And the EC50 [15]?
A: > 150 µM (not active)

Q: And the EC50 [16]?
A: 44.9 µM (active)

Q: And the IC50 [17]?
A: > 20 µM (inactive)

Q: And the CC50 [1]?
A: 11.6 µM (active)

Q: And the IC50 [18]?
A: > 20 µM (inactive)

Q: What about the EC50 [19] of the same compound?
A: 19.1 µM (active)

Q: What about the EC50 [20] of the same compound?
A: 3.66 µM (active)

Q: And the IC50 [21]?
A: 9.42 µM (active)

Q: With `O=C(Nc1ccc(S(=O)(=O)Nc2nccs2)cc1)c1nn(-c2ccccc2)ccc1=O` as the compound, how does the IC50 [11] read?
A: 3.52 µM (active)
